Assay results published in PubChem BioAssay AID256 (DTP/NCI, 2004).
Toxic doses and inconclusive results are not listed.

Test system: CD2F1 mice, L1210 leukemia ip, survival T/C
Experiment: NCI In Vivo Anticancer Drug Screen. Data for tumor model L1210 Leukemia (intraperitoneal) in CD2F1 (CDF1) mice
Details: higher = longer survival
Method in brief: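 In this screen, transplantable tumors were grown in mice given either the compound or its vehicle. Results were expressed as the treated measurement relative to the control measurement.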

[1] = endpoint: mean survival time, dose: 12.5 mg/kg/injection, schedule: Q01DX009 (ip), vehicle: Klucel (hydroxypropylcellulose) (HPC)
[2] = endpoint: mean survival time, dose: 25.0 mg/kg/injection, schedule: Q01DX009 (ip), vehicle: Klucel (hydroxypropylcellulose) (HPC)
[3] = endpoint: mean survival time, dose: 50.0 mg/kg/injection, schedule: Q01DX009 (ip), vehicle: Klucel (hydroxypropylcellulose) (HPC)
[4] = endpoint: mean survival time, dose: 100.0 mg/kg/injection, schedule: Q01DX009 (ip), vehicle: saline with Tween-80
[5] = endpoint: mean survival time, dose: 400.0 mg/kg/injection, schedule: Q01DX009 (ip), vehicle: saline with Tween-80

CCN(CC)CCNc1ccc(CO)c2sc3ccccc3c(=O)c12
T/C (endpoint: mean survival time, dose: 4.0 mg/kg/injection, schedule: Q03HX008 (ip), vehicle: saline): 101 % of control
T/C (endpoint: mean survival time, dose: 4.0 mg/kg/injection, schedule: Q03HX016 (ip), vehicle: saline): 104 % of control
T/C (endpoint: mean survival time, dose: 4.0 mg/kg/injection, schedule: Q03HX024 (ip), vehicle: saline): 110 % of control
T/C (endpoint: mean survival time, dose: 8.0 mg/kg/injection, schedule: Q03HX008 (ip), vehicle: saline): 112 % of control
T/C (endpoint: mean survival time, dose: 8.0 mg/kg/injection, schedule: Q03HX016 (ip), vehicle: saline): 108 % of control
T/C (endpoint: mean survival time, dose: 8.0 mg/kg/injection, schedule: Q03HX024 (ip), vehicle: saline): 117 % of control
T/C [1]: 106 % of control
T/C (endpoint: mean survival time, dose: 16.0 mg/kg/injection, schedule: Q03HX008 (ip), vehicle: saline): 105 % of control
T/C (endpoint: mean survival time, dose: 16.0 mg/kg/injection, schedule: Q03HX016 (ip), vehicle: saline): 110 % of control
T/C (endpoint: mean survival time, dose: 16.0 mg/kg/injection, schedule: Q03HX024 (ip), vehicle: saline): 151 % of control
T/C [2]: 102 % of control
T/C (endpoint: mean survival time, dose: 32.0 mg/kg/injection, schedule: Q01DX001 (ip), vehicle: saline): 107 % of control
T/C (endpoint: mean survival time, dose: 32.0 mg/kg/injection, schedule: Q01DX001 (sc), vehicle: saline): 116 % of control
T/C (endpoint: mean survival time, dose: 32.0 mg/kg/injection, schedule: Q03HX016 (ip), vehicle: saline): 117 % of control
T/C (endpoint: mean survival time, dose: 32.0 mg/kg/injection, schedule: Q03HX024 (ip), vehicle: saline): 184 % of control
T/C (endpoint: mean survival time, dose: 32.0 mg/kg/injection, schedule: Q04DX003 (ip), vehicle: saline): 116 % of control
T/C (endpoint: mean survival time, dose: 32.0 mg/kg/injection, schedule: Q08DX002 (ip), vehicle: saline): 114 % of control
T/C [3]: 120 % of control
T/C (endpoint: mean survival time, dose: 64.0 mg/kg/injection, schedule: Q01DX001 (ip), vehicle: saline): 108 % of control
T/C (endpoint: mean survival time, dose: 64.0 mg/kg/injection, schedule: Q01DX001 (sc), vehicle: saline): 111 % of control
T/C (endpoint: mean survival time, dose: 64.0 mg/kg/injection, schedule: Q01DX009 (ip), vehicle: saline): 174 % of control
T/C (endpoint: mean survival time, dose: 64.0 mg/kg/injection, schedule: Q01DX009 (oral), vehicle: saline): 121 % of control
T/C (endpoint: mean survival time, dose: 64.0 mg/kg/injection, schedule: Q01DX009 (sc), vehicle: saline): 156 % of control
T/C (endpoint: mean survival time, dose: 64.0 mg/kg/injection, schedule: Q03HX008 (ip), vehicle: saline): 150 % of control
T/C (endpoint: mean survival time, dose: 64.0 mg/kg/injection, schedule: Q03HX016 (ip), vehicle: saline): 151 % of control
T/C (endpoint: mean survival time, dose: 64.0 mg/kg/injection, schedule: Q03HX024 (ip), vehicle: saline): 94 % of control
T/C (endpoint: mean survival time, dose: 64.0 mg/kg/injection, schedule: Q08DX002 (ip), vehicle: saline): 113 % of control
T/C (endpoint: mean survival time, dose: 120.0 mg/kg/injection, schedule: Q01DX001 (ip), vehicle: acetone): 113 % of control
T/C (endpoint: mean survival time, dose: 120.0 mg/kg/injection, schedule: Q01DX009 (ip), vehicle: acetone): 118 % of control
T/C (endpoint: mean survival time, dose: 128.0 mg/kg/injection, schedule: Q01DX001 (ip), vehicle: saline): 110 % of control
T/C (endpoint: mean survival time, dose: 128.0 mg/kg/injection, schedule: Q01DX001 (sc), vehicle: saline): 115 % of control
T/C (endpoint: mean survival time, dose: 128.0 mg/kg/injection, schedule: Q01DX009 (ip), vehicle: saline): 101 % of control
T/C (endpoint: mean survival time, dose: 128.0 mg/kg/injection, schedule: Q01DX009 (sc), vehicle: saline): 111 % of control
T/C (endpoint: mean survival time, dose: 128.0 mg/kg/injection, schedule: Q08DX002 (ip), vehicle: saline): 111 % of control
T/C (endpoint: mean survival time, dose: 180.0 mg/kg/injection, schedule: Q01DX001 (ip), vehicle: acetone): 106 % of control
T/C (endpoint: mean survival time, dose: 256.0 mg/kg/injection, schedule: Q01DX001 (ip), vehicle: saline): 122 % of control
T/C (endpoint: mean survival time, dose: 256.0 mg/kg/injection, schedule: Q01DX001 (oral), vehicle: saline): 110 % of control
T/C (endpoint: mean survival time, dose: 256.0 mg/kg/injection, schedule: Q01DX001 (sc), vehicle: saline): 115 % of control
T/C (endpoint: mean survival time, dose: 256.0 mg/kg/injection, schedule: Q01DX009 (oral), vehicle: saline): 124 % of control
T/C (endpoint: mean survival time, dose: 400.0 mg/kg/injection, schedule: Q01DX001 (ip), vehicle: acetone): 120 % of control
T/C (endpoint: mean survival time, dose: 512.0 mg/kg/injection, schedule: Q01DX001 (oral), vehicle: saline): 117 % of control
T/C (endpoint: median survival time, dose: 10.0 mg/kg/injection, schedule: Q01DX009 (ip), vehicle: water): 102 % of control
T/C (endpoint: median survival time, dose: 40.0 mg/kg/injection, schedule: Q01DX009 (ip), vehicle: water): 150 % of control
T/C (endpoint: median survival time, dose: 160.0 mg/kg/injection, schedule: Q01DX009 (ip), vehicle: water): 103 % of control

O=S(=O)(N=C1C(Cl)=C(Cl)C(=NS(=O)(=O)c2ccccc2)C(Cl)=C1Cl)c1ccccc1
T/C (endpoint: mean survival time, dose: 100.0 mg/kg/injection, schedule: Q04DX003 (ip), vehicle: Klucel (hydroxypropylcellulose) (HPC)): 97 % of control
T/C (endpoint: mean survival time, dose: 200.0 mg/kg/injection, schedule: Q04DX003 (ip), vehicle: Klucel (hydroxypropylcellulose) (HPC)): 95 % of control
T/C (endpoint: mean survival time, dose: 400.0 mg/kg/injection, schedule: Q04DX003 (ip), vehicle: Klucel (hydroxypropylcellulose) (HPC)): 93 % of control

CCC(c1ccc(OC)cc1)C(CC)c1ccc(O)c(CN2CCN(C)CC2)c1 (stereo not drawn)
T/C [4]: 102 % of control

Nc1ccccc1SC(CC(=O)c1ccccc1)c1ccc2c(c1)OCO2 (stereo not drawn)
T/C [4]: 95 % of control
T/C (endpoint: mean survival time, dose: 200.0 mg/kg/injection, schedule: Q01DX009 (ip), vehicle: saline with Tween-80): 93 % of control
T/C [5]: 100 % of control

O=NN(CCCl)C(=O)Nc1c[nH]c2ccccc12
T/C (endpoint: mean survival time, dose: 177.0 mg/kg/injection, schedule: Q01DX001 (ip), vehicle: saline with Tween-80): 96 % of control
T/C (endpoint: mean survival time, dose: 177.0 mg/kg/injection, schedule: Q01DX009 (ip), vehicle: saline with Tween-80): 98 % of control
T/C (endpoint: mean survival time, dose: 265.0 mg/kg/injection, schedule: Q01DX001 (ip), vehicle: saline with Tween-80): 97 % of control
T/C (endpoint: mean survival time, dose: 265.0 mg/kg/injection, schedule: Q01DX009 (ip), vehicle: saline with Tween-80): 101 % of control
T/C (endpoint: mean survival time, dose: 400.0 mg/kg/injection, schedule: Q01DX001 (ip), vehicle: saline with Tween-80): 92 % of control
T/C [5]: 97 % of control
T/C (endpoint: mean survival time, dose: 600.0 mg/kg/injection, schedule: Q01DX001 (ip), vehicle: saline with Tween-80): 91 % of control

CN1CCN(CCCN2CC3CC=CCC3C2)CC1 (stereo not drawn)
T/C (endpoint: mean survival time, dose: 100.0 mg/kg/injection, schedule: Q04DX003 (ip), vehicle: saline): 105 % of control
T/C (endpoint: mean survival time, dose: 200.0 mg/kg/injection, schedule: Q04DX003 (ip), vehicle: saline): 100 % of control

CC1(C)C2CC=C(C[P+](c3ccccc3)(c3ccccc3)c3ccccc3)C1C2 (stereo not drawn)
T/C (endpoint: mean survival time, dose: 5.0 mg/kg/injection, schedule: Q01DX009 (ip), vehicle: saline sonified): 109 % of control
T/C (endpoint: mean survival time, dose: 5.0 mg/kg/injection, schedule: Q04DX003 (ip), vehicle: saline): 103 % of control
T/C (endpoint: mean survival time, dose: 10.0 mg/kg/injection, schedule: Q04DX003 (ip), vehicle: saline): 92 % of control
T/C (endpoint: mean survival time, dose: 20.0 mg/kg/injection, schedule: Q04DX003 (ip), vehicle: saline): 87 % of control

CS(=O)(=O)OCC(OS(C)(=O)=O)C(OS(C)(=O)=O)C(OS(C)(=O)=O)C(COS(C)(=O)=O)OS(C)(=O)=O (stereo not drawn)
T/C [1]: 101 % of control
T/C [2]: 104 % of control
T/C [3]: 101 % of control

CC(CCOP(N)(=O)N(CCCl)CCCl)OCc1ccccc1 (stereo not drawn)
T/C (endpoint: mean survival time, dose: 25.0 mg/kg/injection, schedule: Q01DX001 (ip), vehicle: other): 98 % of control
T/C (endpoint: mean survival time, dose: 50.0 mg/kg/injection, schedule: Q01DX001 (ip), vehicle: other): 101 % of control
T/C (endpoint: mean survival time, dose: 100.0 mg/kg/injection, schedule: Q01DX001 (ip), vehicle: other): 106 % of control
T/C (endpoint: mean survival time, dose: 200.0 mg/kg/injection, schedule: Q01DX001 (ip), vehicle: other): 115 % of control
T/C (endpoint: mean survival time, dose: 500.0 mg/kg/injection, schedule: Q01DX001 (ip), vehicle: other): 118 % of control

O=C(NC(=O)c1ccccc1)c1ccccc1
T/C (endpoint: mean survival time, dose: 100.0 mg/kg/injection, schedule: Q01DX001 (ip), vehicle: Klucel (hydroxypropylcellulose) (HPC)): 101 % of control
T/C (endpoint: mean survival time, dose: 100.0 mg/kg/injection, schedule: Q04DX003 (ip), vehicle: saline with Tween-80): 103 % of control
T/C (endpoint: mean survival time, dose: 200.0 mg/kg/injection, schedule: Q01DX001 (ip), vehicle: Klucel (hydroxypropylcellulose) (HPC)): 102 % of control
T/C (endpoint: mean survival time, dose: 200.0 mg/kg/injection, schedule: Q04DX003 (ip), vehicle: saline with Tween-80): 102 % of control
T/C (endpoint: mean survival time, dose: 400.0 mg/kg/injection, schedule: Q01DX001 (ip), vehicle: Klucel (hydroxypropylcellulose) (HPC)): 96 % of control
T/C (endpoint: mean survival time, dose: 400.0 mg/kg/injection, schedule: Q04DX003 (ip), vehicle: saline with Tween-80): 97 % of control
